Results published in patent US10233177B2, “TRPV1 vanilloid receptor antagonists with a bicyclic portion” (Serentrix LLC, priority 2010, dated 2019).
pIC50: −log10 of the molar value. Where two headings read alike, the source gives them in different places.

Tests used:
[1] = target: TRPV1 (Rattus norvegicus (Rat), UniProt O35433); assay: Ca2+ fluorescence measurements in cultured rat dorsal root ganglia neurons (capsaicin-induced calcium uptake); format: cell-based; settings: for inhibition at 0.3 µM: DRG neuron
[2] = test system: CFA-induced thermal hyperalgesia; assay: CFA-induced thermal hyperalgesia in rats (Hargreaves' test); format: in vivo; settings: rat, 30 μmol/kg oral; read-out: reversal of CFA-induced thermal hyperalgesia (maximal reversal activity / % of reversion)
Source text: CFA-Induced Thermal Hyperalgesia in Rats
This method was used for the determination of acute nociceptive thermal threshold and combines a chemical stimulus and heat for measuring pain sensitivity. Male SD rats (Charles River, Italy) weighing 100 to 250 gr. were used. Anti-hyperalgesic effects were investigated by using the Hargreaves' test. Complete Freund's Adjuvant (CFA; Sigma, USA) was used to induce thermal hyperalgesia. CFA contains killed Mycobacterium tuberculosis and is designed to provide continuous release of antigens necessary for stimulating a strong, persistent immune response. This effect causes the reduction of the hind paw withdrawal response latency induced by heat during the Hargreaves' test. Thermal stimulation was performed 30, 60, 120 and 180 (240 min only if needed) minutes after the oral administration of the antagonists. During the CFA-induced thermal hyperalgesia experiments two different solubilization protocols were used: when items presented an amino group, a pH=2 aqueous solution of HCl and 2.5% Tween80 was used; otherwise molecules were suspended in 0.5% Methocel and 2.5% Tween80. Compounds were orally administrated (30 μmol/kg/10 ml) to rats 24 hours after the CFA treatment. CFA was injected into the plantar surface of a rat's hind paw at a fixed dose of 50 μl by the use of a micro syringe.

[3] = test system: CCI-induced mechanical hyperalgesia; assay: CCI-induced mechanical hyperalgesia (Randall-Selitto paw pressure); format: in vivo; settings: rat CCI, 30 μmol/kg oral
Method: CCI-Induced Mechanical Hyperalgesia
Male SD rats (Charles River, Italy) weighing 250 g were anaesthetized with sodium pentobarbital (60 mg/kg, intraperitoneal (i.p.), 0.1 ml/10 g) and, under a dissecting microscope, the right common sciatic nerve was exposed at the level of the mid thigh and, proximal to the trifurcation of the nerve; four ligatures (4/0 chromic silk, Ethicon) were loosely tied around it, at about 0.5 mm spacing, until they elicited a brief twitch in the respective hind, taking care to preserve epineural circulation. Sham-operated animals (sciatic exposure without ligation) were used as controls. 14 days after the surgery, mechanical hyperalgesia was assessed using an analgesimeter (Ugo Basile, Italy, Randall-Selitto analgesic apparatus). This device generated a mechanical force on the affected paw and the nociceptive threshold was defined as the force (in g) at which the rat withdraws the paw (with a cut-off of 450 g). Two baseline measurement values were obtained 75 and 45 min before the actual test. After the second baseline measurement, animals were randomly allocated to the different treatment groups. Paw pressure test was performed 0, 75, 120, 165, 210 and 300 min after the oral administration of the compounds. All tested compounds were orally administrated (30 μmol/kg/10 ml) to rats by gavage.

[4] = 300 nM, rat DRG neurons, read-out: abolition of capsaicin response at 300 nM
[5] = Table 1, formula IA-C, 300 nM against calcium uptake induced by 30 nM capsaicin, rat DRG neurons, read-out: % inhibition at 300 nM
[6] = capsaicin-induced calcium uptake, rat DRG neurons, read-out: inhibition of the calcium uptake
[7] = Table 1, against capsaicin-evoked [Ca2+]i mobilization, rat DRG neurons, read-out: IC50
[8] = rat DRG neurons, read-out: IC50 against capsaicin-evoked [Ca2+]i mobilization
[9] = Table 2, formula ID-E, 300 nM against calcium uptake induced by 30 nM capsaicin, rat DRG neurons, read-out: % inhibition at 300 nM

Chain of TRPV1 (O35433 whole entry): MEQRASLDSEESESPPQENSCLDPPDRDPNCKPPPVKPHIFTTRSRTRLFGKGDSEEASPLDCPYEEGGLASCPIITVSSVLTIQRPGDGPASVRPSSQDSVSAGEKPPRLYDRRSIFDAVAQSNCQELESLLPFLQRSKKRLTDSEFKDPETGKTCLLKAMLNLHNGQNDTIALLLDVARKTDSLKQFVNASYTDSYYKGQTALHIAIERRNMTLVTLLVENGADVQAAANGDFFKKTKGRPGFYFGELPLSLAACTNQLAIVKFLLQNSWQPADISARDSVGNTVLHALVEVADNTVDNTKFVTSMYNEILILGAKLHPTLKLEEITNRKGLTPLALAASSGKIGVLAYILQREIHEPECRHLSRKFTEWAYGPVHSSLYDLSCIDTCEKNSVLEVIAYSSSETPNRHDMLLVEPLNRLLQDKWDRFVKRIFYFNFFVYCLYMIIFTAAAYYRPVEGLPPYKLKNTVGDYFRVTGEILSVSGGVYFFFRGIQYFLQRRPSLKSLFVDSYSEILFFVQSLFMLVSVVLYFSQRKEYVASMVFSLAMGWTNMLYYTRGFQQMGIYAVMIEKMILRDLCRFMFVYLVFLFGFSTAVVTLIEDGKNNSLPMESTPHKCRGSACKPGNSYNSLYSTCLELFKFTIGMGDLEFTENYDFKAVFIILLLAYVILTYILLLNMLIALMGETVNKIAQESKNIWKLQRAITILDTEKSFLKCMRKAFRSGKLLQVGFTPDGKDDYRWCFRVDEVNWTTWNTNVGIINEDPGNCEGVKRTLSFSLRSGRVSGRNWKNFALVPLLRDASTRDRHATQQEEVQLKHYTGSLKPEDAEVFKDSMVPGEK

## O=C1COc2c(cccc2NC(=O)NCc2ccc(C(F)(F)F)cc2N2CCCC2)N1 [Example 47, 1-(4-(trifluoromethyl)-2-(pyrrolidin-1-yl)benzyl)-3-(3,4-dihydro-3-oxo-2H-benzo[b][1,4]oxazin-8-yl)urea]
[1]; [4]
  inhibition at 0.3 µM: ~100%
[1]; [5]
  inhibition at 0.3 µM: 100%
[1]; [6]
  inhibition at 0.3 µM: > 80%
[1]; [7]
  pIC50: 9.15
[1]; [8]
  pIC50: 9.15
[2]
  inhibition in vivo at 30 µmol/kg: 46%

## O=C1COc2c(cccc2NC(=O)NCc2ccc(C(F)(F)F)cc2N2CCCCC2)N1 [Example 48, 1-(4-(trifluoromethyl)-2-(piperidin-1-yl)benzyl)-3-(3,4-dihydro-3-oxo-2H-benzo[b][1,4]oxazin-8-yl)urea]
[1]; [4]
  inhibition at 0.3 µM: ~100%
[1]; [5]
  inhibition at 0.3 µM: 100%
[1]; [6]
  inhibition at 0.3 µM: > 80%
[1]; [7]
  pIC50: 9.89
[1]; [8]
  pIC50: 9.89
[2]
  inhibition in vivo at 30 µmol/kg: 45%

## O=C(NCc1ccc(C(F)(F)F)cc1N1CCCCC1)Nc1cccc2[nH]c(=O)[nH]c12 [Example 6, 1-(4-(trifluoromethyl)-2-(piperidin-1-yl)benzyl)-3-(2,3-dihydro-2-oxo-1H-benzo[d]imidazol-4-yl)urea]
[1]; [4]
  inhibition at 0.3 µM: ~100%
[1]; [5]
  inhibition at 0.3 µM: 95%
[1]; [6]
  inhibition at 0.3 µM: > 80%
[1]; [7]
  pIC50: 9.29
[1]; [8]
  pIC50: 9.29
[3]
  anti-hyperalgesic activity (in words): relevant and long lasting anti-hyperalgesic activity
  reversal of hyperalgesia within the first 2 hours: at least 80%

## O=C(NCc1ccc(C(F)(F)F)o1)Nc1cccc2[nH]c(=O)[nH]c12 [Example 23, 1-(5-(trifluoromethyl-furan-2-yl)-methyl)-3-(2,3-dihydro-2-oxo-1H-benzo[d]imidazol-4-yl)urea]
[1]; [5]
  inhibition at 0.3 µM: 82%
[1]; [6]
  inhibition at 0.3 µM: > 80%
[1]; [7]
  pIC50: 6.97
[2]
  inhibition in vivo at 30 µmol/kg: 46%

## Cc1ccc(CNC(=O)Nc2cccc3c2OCC(=O)N3)c(OC(C)C)n1 [Example 85, 1-[(2-isopropoxy-6-methyl-3-pyridyl)methyl]-3-(3-oxo-4H-1,4-benzoxazin-8-yl)urea]
[1]; [5]
  inhibition at 0.3 µM: 79%

## O=C1COc2c(cccc2NC(=O)NCc2ccc(C(F)(F)F)cn2)N1 [Example 83, 1-(3-oxo-4H-1,4-benzoxazin-8-yl)-3-[[5-(trifluoromethyl)-2-pyridyl]methyl]urea]
[1]; [5]
  inhibition at 0.3 µM: 57%

## O=C(NCc1ccc(C(F)(F)F)cc1Cl)Nc1cccc2oc(=O)[nH]c12 [Example 26, 1-(2-chloro-4-(trifluoromethyl)benzyl)-3-(2,3-dihydro-2-oxobenzo[d]oxazol-4-yl)urea]
[1]; [5]
  inhibition at 0.3 µM: 55%

## Cc1ccc(CNC(=O)Nc2cccc3[nH]c(=O)[nH]c23)c(N(C)C)c1 [Example 18, 1-(2-(dimethylamino)-4-methylbenzyl)-3-(2,3-dihydro-2-oxo-1H-benzo[d]imidazol-4-yl)urea]
[1]; [5]
  inhibition at 0.3 µM: 54%

## Cc1ccc(CNC(=O)Nc2cccc3[nH]c(=O)[nH]c23)cc1 [Example 17, 1-(4-methylbenzyl)-3-(2,3-dihydro-2-oxo-1H-benzo[d]imidazol-4-yl)urea]
[1]; [5]
  inhibition at 0.3 µM: 44%

## O=C1COc2c(cccc2NC(=O)NCc2ccc(C(F)(F)F)o2)N1 [Example 76, 1-(3-oxo-4H-1,4-benzoxazin-8-yl)-3-[[5-(trifluoromethyl)-2-furyl]methyl]urea]
[1]; [5]
  inhibition at 0.3 µM: 40%

## O=C(NCc1ccc(Cl)cc1N1CCCCC1)Nc1cccc2[nH]c(=O)[nH]c12 [Example 13, 1-(4-chloro-2-(piperidin-1-yl)benzyl)-3-(2,3-dihydro-2-oxo-1H-benzo[d]imidazol-4-yl)urea]
[1]; [4]
  inhibition at 0.3 µM: ~100%
[1]; [5]
  inhibition at 0.3 µM: 96%
[1]; [6]
  inhibition at 0.3 µM: > 80%
[1]; [7]
  pIC50: 8.74
[1]; [8]
  pIC50: 8.74
[3]
  anti-hyperalgesic activity (in words): relevant and long lasting anti-hyperalgesic activity
  reversal of hyperalgesia within the first 2 hours: at least 80%
[2]
  inhibition in vivo at 30 µmol/kg: 60%

## CC(C)Oc1nc(C(F)(F)F)ccc1CNC(=O)Nc1cccc2[nH]c(=O)[nH]c12 [Example 68, 1-[[2-isopropoxy-6-(trifluoromethyl)-3-pyridyl]methyl]-3-(2-oxo-1,3-dihydrobenzimidazol-4-yl)urea]
[1]; [5]
  inhibition at 0.3 µM: 93%
[1]; [6]
  inhibition at 0.3 µM: > 80%

## O=C(NCc1ccc(C(F)(F)F)cc1)Nc1cccc2[nH]c(=O)oc12 [Example 34, 1-(4-(trifluoromethyl)benzyl)-3-(2,3-dihydro-2-oxobenzo[d]oxazol-7-yl)urea]
[1]; [5]
  inhibition at 0.3 µM: 19%

## O=C1COc2cccc(C(=O)NCc3ccc(C(F)(F)F)cc3)c2N1 [Example 62, N-(4-(trifluoromethyl)benzyl)-3,4-dihydro-3-oxo-2H-benzo[b][1,4]oxazine-5-carboxamide]
[1]; Table 3, formula IF-H, 300 nM against calcium uptake induced by 30 nM capsaicin, rat DRG neurons, read-out: % inhibition at 300 nM
  inhibition at 0.3 µM: 8%

## O=C1COc2cccc(NC(=O)NCc3ccc(C(F)(F)F)cc3N3CCCCC3)c2N1 [Example 44, 1-(4-(trifluoromethyl)-2-(piperidin-1-yl)benzyl)-3-(3,4-dihydro-3-oxo-2H-benzo[b][1,4]oxazin-5-yl)urea]
[1]; [5]
  inhibition at 0.3 µM: 47%

## O=C(Cc1ccc(C(F)(F)F)cc1)Nc1cccc2oc(=O)[nH]c12 [Example 56, 2-(4-(trifluoromethyl)phenyl)-N-(2,3-dihydro-2-oxobenzo[d]oxazol-4-yl)acetamide]
[1]; [9]
  inhibition at 0.3 µM: 31%

## O=C1COc2cccc(OC(=O)NCc3ccc(C(F)(F)F)cc3)c2N1 [Example 65, 3,4-dihydro-3-oxo-2H-benzo[b][1,4]oxazin-5-yl 4-(trifluoromethyl)benzylcarbamate]
[1]; read-out: % inhibition at 300 nM
  inhibition at 0.3 µM: 4%

## Cc1ccc(CNC(=O)Nc2cccc3[nH]c(=O)[nH]c23)c(N2CCCCC2)n1 [Example 40, 1-[[6-methyl-2-(1-piperidyl)-3-pyridyl]methyl]-3-(2-oxo-1,3-dihydrobenzimidazol-4-yl)urea]
[1]; [5]
  inhibition at 0.3 µM: 52%

## COc1nc(C(F)(F)F)ccc1CNC(=O)Nc1cccc2c1OCC(=O)N2 [Example 82, 1-[[2-methoxy-6-(trifluoromethyl)-3-pyridyl]methyl]-3-(3-oxo-4H-1,4-benzoxazin-8-yl)urea]
[1]; [5]
  inhibition at 0.3 µM: 90%
[1]; [6]
  inhibition at 0.3 µM: > 80%
[1]; [7]
  pIC50: 7.27

## O=C1COc2c(cccc2NC(=O)NCc2ccc(Cl)cc2N2CCCCC2)N1 [Example 52, 1-(4-chloro-2-(piperidin-1-yl)benzyl)-3-(3,4-dihydro-3-oxo-2H-benzo[b][1,4]oxazin-8-yl)urea]
[1]; [4]
  inhibition at 0.3 µM: ~100%
[1]; [5]
  inhibition at 0.3 µM: 98%

## O=C(NCc1ccc(C(F)(F)F)nc1)Nc1cccc2[nH]c(=O)[nH]c12 [Example 66, 1-(2-oxo-1,3-dihydrobenzimidazol-4-yl)-3-[[6-(trifluoromethyl)-3-pyridyl]methyl]urea]
[1]; [5]
  inhibition at 0.3 µM: 71%

## O=C(NCc1ccc(C(F)(F)F)cc1)Nc1cccc2[nH]c(=O)[nH]c12 [Example 1, 1-(4-(trifluoromethyl)benzyl)-3-(2,3-dihydro-2-oxo-1H-benzo[d]imidazol-4-yl)urea]
[1]; [5]
  inhibition at 0.3 µM: 84%
[1]; [6]
  inhibition at 0.3 µM: > 80%
[3]
  anti-hyperalgesic activity (in words): relevant and long lasting anti-hyperalgesic activity
  reversal of hyperalgesia within the first 2 hours: at least 80%

## O=C(NCc1ccc(Cl)nc1)Nc1cccc2[nH]c(=O)[nH]c12 [Example 21, 1-((6-chloropyridin-3-yl)methyl)-3-(2,3-dihydro-2-oxo-1H-benzo[d]imidazol-4-yl)urea]
[1]; [5]
  inhibition at 0.3 µM: 79%

## O=C(Cc1ccc(C(F)(F)F)cc1)Nc1cccc2[nH]c(=O)oc12 [Example 57, 2-(4-(trifluoromethyl)phenyl)-N-(2,3-dihydro-2-oxobenzo[d]oxazol-7-yl)acetamide]
[1]; [9]
  inhibition at 0.3 µM: 7%
